Measurements published in PMC11820944, “Safirinium Fluorescent “Click” Molecular Probes: Synthesis, CuAAC Reactions, and Microscopic Imaging” (Molecules, 2025).

What was measured:
CHO-K1 cells = assay: Cellular uptake and distribution by fluorescence (confocal) microscopy; type: cell-based, Chinese hamster; conditions: 10 µM, 30 min
Experimental: Figure 6 Cellular uptake and intracellular distribution of selected probes (1 and 6) and triazole derivatives (11, 12, 13, and 15) in Chinese hamster ovary cells. CHO-K1 cells were cultured overnight and then incubated with the tested compounds (10 μM). Representative images (100× magnification) illustrating intracellular distribution of the compounds in CHO-K1 cells were captured after 30 min of incubation with the tested compounds. Scale bar = 20 μm.
CHO-K1 cells were seeded at a density of 2 × 10^5/well in 12-well plates containing cover slips at the bottom and cells were incubated for 24 h. Then, cells were fixed in 3.7% formaldehyde in PBS for 10 min in 37 °C, washed twice with PBS, and stained with compound solution (10 µM) for 30 min. After this time, the cells were rinsed 2 times with Gibco FluoroBrite DMEM and a coverslip was placed on a stock carrier with drops of culture medium. Finally, slides were mounted in ProLong™ Glass Antifade Mountant and visualized under an A1 confocal system built on a Nikon Eclipse Ti-E microscope (Japan) equipped with 405 and 561 nm diode lasers and a Plan Apo 100×/1.4 Oil DIC objective.

[1] = Fluorescence emission spectra and quantum yields (comparative method); type: physicochemical; conditions: for λ Emission: 1·10^-6 mol/dm^3, 365 nm excitation; for Fluorescence Quantum Yield: against A1 standard
Experimental: Fluorescence spectra were recorded using a Hitachi F-70000 spectrofluorimeter (P VWR-Hitachi, Japan), for 1 × 10^−6 mol/dm^3 solutions of the compounds in water and acetonitrile, at 365 nm excitation wavelength, using 5 nm excitation and 2.5 nm emission slits, and 700 V photomultiplier voltage. The spectra (Figures S2 and S4) were recorded in 400–700 nm range. The 1 × 10^−6 mol/dm^3 solutions were prepared by 100-fold dilution of the solutions used for absorption measurement.
Quantum yields of fluorescence (Table 1) were determined using the comparative method, from Formula (1), using the recorded absorption and emission spectra and diethyl Safirinium P zwitterion A1 (ϕ = 0.755 in water) as standard.(1) Φ=ΦstdFAstdnstd2/FstdAn^2 where ϕ, ϕstd—quantum yields; F, Fstd—integrals under fluorescence emission curves; A, Astd—absorbance at excitation wavelength, and n, nstd—refractive indices, for the compound and standard (std subscript), respectively.

[2] = MTT cell viability assay, NIH-3T3 cells; type: cell-based; conditions: mouse, 24 h incubation, read-out: IC50 (cytotoxicity, cell viability)
Source text: (§1) CHO-K1 cell line was derived as a subclone from the parental CHO cell line, which was initiated from a biopsy of an ovary of an adult, female Chinese hamster commercially available in ATCC (CCL-61™). NIH-3T3 cell line was obtained from DSMZ, the German Collection of Microorganisms and Cell Cultures. CHO-K1 and NIH-3T3 cells were cultivated in F-12K Medium (ATCC 30-2004) and Dulbecco’s MEM with Glutamax™ 1 Medium (Gibco, Paisley, UK), respectively. Culture media were supplemented with fetal bovine serum (FBS, Gibco, Thermo Fisher Scientific, Waltham, MA, USA) to a final concentration of 10% and antibiotic to final concentration of 1% (pent/strept, Gibco, Thermo Fisher Scientific, Waltham, MA, USA). Cells were cultured in standard culture conditions (5% CO2, 37 °C, 95% humidity).
Cell viability was determined by the 3-(4,5-dimethylthiazol-2-yl)-2,5-diphenyltetrazolium bromide (MTT, Sigma Aldrich, Burlington, MA, USA) assay. Cells were seeded into 96-well plates at density of 2 × 10^4 cell/well and cultured in the presence of compounds (1–4, 6–9, 11–13, and 15) at concentration range 1.56–100 µM for 24 h. The MTT reagent (final concentration 0.5 mg/mL) was added to each well for 3 h, and then formazan crystals were dissolved in DMSO. The absorbance was measured at 570 nm (SpectraMax® iD3, Molecular Devices, San Jose, CA, USA) and the experiment was performed two times in duplicates. Cells viability was expressed as a percentage of viability (in comparison to non-treated cells normalized to 100%). Data were analyzed using GraphPad Prism Software (GraphPad Software, Inc., San Diego, CA, USA, version 10.3.1).

in vitro = type: cell-based; conditions: Chinese hamster
Source text: as §1
Cell viability was determined by the 3-(4,5-dimethylthiazol-2-yl)-2,5-diphenyltetrazolium bromide (MTT, Sigma Aldrich, Burlington, MA, USA) assay. […] The absorbance was measured at 570 nm (SpectraMax® iD3, Molecular Devices, San Jose, CA, USA) and the experiment was performed two times in duplicates. Cells viability was expressed as a percentage of viability (in comparison to non-treated cells normalized to 100%). Data were analyzed using GraphPad Prism Software (GraphPad Software, Inc., San Diego, CA, USA, version 10.3.1).

[3] = design: method as in PMID 23893376; conditions: in water; cited from earlier work
[4] = Chemical stability of aqueous solution in daylight, RP-HPLC with fluorescence detection; type: physicochemical
Source text: To assess the chemical stability of Safirinium-based alkyne probes for RP-HPLC analysis, we developed a preliminary RP-HPLC method with fluorescent detection for the alkyne probe 1. This was accomplished using an LC-PCN column and a simple isocratic elution approach. Subsequently, we prepared a 10^−6 M aqueous solution of probe 1 and kept it exposed to natural daylight on a laboratory bench for 7 days. […] Assuming pseudo-first-order kinetics, it can be calculated that probe 1 can remain stable (95%) under such conditions for 12 h.
RP-HPLC analyses with fluorescence detection (Method B) were performed on a LaChrom Elite HPLC system, (VWR-Hitachi, Japan), equipped with a L-2130 pump, a L-2485 FL detector, a L-2350 column oven, and an L-2200 autosampler, the system was controlled with EZChrom Elite version 3.2, Agilent software. Separations were performed on a SUPELCOSIL LC-PCN 250 × 4.6 mm column with 5 µm grain size, under 1 mL/min isocratic elution with 50:50 v/v water: acetonitrile mixture, acidified with 0.1% formic acid. Injection volume was 20 µL; 10^−6 mol/dm^3 solution of probe 1 in water was prepared in a clear HPLC sample vial and analyzed directly after preparation and after 7 days (168 h) of standing on a lab bench, exposed to natural daylight at room temperature. Example chromatograms are presented in the electronic supporting information.

Compound | λ Emission ([1]; Acetonitrile) [nm] | Fluorescence Quantum Yield ([1]; Acetonitrile) | λ Emission ([1]; H2O) [nm] | Fluorescence Quantum Yield ([1]; H2O) | Cellular uptake and intracellular distribution (CHO-K1 cells) | IC50 at 24 h [2] [µM] | further results
CC[N+]1(CC)CN2C(=N1)C(C(=O)NCc1cn(C3O[C@H](COC(C)=O)[C@@H](OC(C)=O)[C@H](OC(C)=O)[C@H]3OC(C)=O)nn1)=Cc1ccccc12.[Br-] (stereo partly drawn) [Compound 12, 2,2-Diethyl-4-(((1-((3R,4S,5R,6R)-3,4,5-triacetoxy-6-(acetoxymethyl)tetrahydro-2H-pyran-2-yl)-1H-1,2,3-triazol-4-yl)methyl)carbamoyl)-1,2-dihydro-[1,2,4]triazolo[4,3-a]quinolin-2-ium bromide] |  |  |  |  | capable of entering the cytoplasm of the cells; however, they did not penetrate the nuclei |  | 
CC[N+]1(CC)CN2C(C)=CC(C)=C(C(=O)NCCCCCN=[N+]=[N-])C2=N1.[Br-] [Compound 6, 8-((5-Azidopentyl)carbamoyl)-2,2-diethyl-5,7-dimethyl-2,3-dihydro-[1,2,4]triazolo[4,3-a]pyridin-2-ium bromide] |  |  |  |  | capable of entering the cytoplasm of the cells; however, they did not penetrate the nuclei |  | 
C#CCNC(=O)C1=C(C)C=C(C)N2C[N+](CCCCCCCC)(CCCCCCCC)N=C12 [Compound 2, 5,7-Dimethyl-2,2-dioctyl-8-(prop-2-yn-1-ylcarbamoyl)-2,3-dihydro-[1,2,4]triazolo[4,3-a]pyridin-2-ium bromide] |  |  |  |  |  | 17.5 | 
C#CCNC(=O)C1=Cc2ccccc2N2C[N+](CCCCCCCC)(CCCCCCCC)N=C12 [Compound 4, 2,2-Dioctyl-4-(prop-2-yn-1-ylcarbamoyl)-1,2-dihydro-[1,2,4]triazolo[4,3-a]quinolin-2-ium bromide] |  |  |  |  |  | 8.7 | IC50 at 24 h (in vitro): 17.3 µM
CCCCCCCC[N+]1(CCCCCCCC)CN2C(=N1)C(C(=O)NCCCCCN=[N+]=[N-])=Cc1ccccc12 [Compound 9, 4-((5-Azidopentyl)carbamoyl)-2,2-dioctyl-1,2-dihydro-[1,2,4]triazolo[4,3-a]quinolin-2-ium bromide] |  |  |  |  |  | 13 | IC50 at 24 h (in vitro): 11 µM
CC[N+]1(CC)CN2C(C)=CC(C)=C(C(=O)[O-])C2=N1 [Compound A1] |  |  |  |  |  |  | Fluorescence quantum yield (ϕ) of standard [3]: 0.755
CCCCCCCC[N+]1(CCCCCCCC)CN2C(C)=CC(C)=C(C(=O)NCCCCCN=[N+]=[N-])C2=N1 [Compound 7, 8-((5-Azidopentyl)carbamoyl)-5,7-dimethyl-2,2-dioctyl-2,3-dihydro-[1,2,4]triazolo[4,3-a]pyridin-2-ium bromide] |  |  |  |  |  | 26.4 | 
C#CCNC(=O)C1=C(C)C=C(C)N2C[N+](CC)(CC)N=C12.[Br-] [Compound 1, 2,2-Diethyl-5,7-dimethyl-8-[(prop-2-yn-1-yl)carbamoyl]-2H,3H-[1,2,4]triazolo [4,3-a]pyridin-2-ium bromide] | 443 | 0.86 | 446 | 1.00 | capable of entering the cytoplasm of the cells; however, they did not penetrate the nuclei |  | half-life ([4]; 10^-6 M aqueous solution exposed to natural daylight): ~168 h; RP-HPLC peak area decrease ([4]; 10^-6 M aqueous solution, natural daylight, room temperature, 7 days): 50%; Time of remaining stable (95%) ([4]; aqueous solution exposed to daylight, assuming pseudo-first-order kinetics): 12 h

Further lines, with some results ahead:

λ Emission ([1]; Acetonitrile) [nm] | Fluorescence Quantum Yield ([1]; Acetonitrile) | λ Emission ([1]; H2O) [nm] | Fluorescence Quantum Yield ([1]; H2O) | Compound | Cellular uptake and intracellular distribution (CHO-K1 cells) | IC50 at 24 h [2] [µM] | further results
454 | 0.53 | 459 | 0.55 | CC[N+]1(CC)CN2C(=N1)C(C(=O)NCCCCCn1cc(CO)nn1)=Cc1ccccc12.[Br-] [Compound 15, 2,2-Diethyl-4-({5-[4-(hydroxymethyl)-1H-1,2,3-triazol-1-yl]pentyl}carbamoyl)-1H,2H-[1,2,4]triazolo[4,3-a]quinolin-2-ium bromide] | capable of entering the cytoplasm of the cells; however, they did not penetrate the nuclei |  | 
443 | 0.86 | 446 | 0.28 | CCCCCCCCCCCCCCn1cc(CNC(=O)C2=C(C)C=C(C)N3C[N+](CC)(CC)N=C23)nn1.[Br-] [Compound 11, 2,2-Diethyl-5,7-dimethyl-8-(((1-tetradecyl-1H-1,2,3-triazol-4-yl)methyl)carbamoyl)-2,3-dihydro-[1,2,4]triazolo[4,3-a]pyridin-2-ium bromide] | capable of entering the cytoplasm of the cells; however, they did not penetrate the nuclei |  | 
452 | 0.45 | 462 | 0.59 | CC[N+]1(CC)CN2C(=N1)C(C(=O)NCc1cn(C3CC(n4cc(C)c(=O)[nH]c4=O)OC3CO)nn1)=Cc1ccccc12 (stereo not shown) [Compound 13, 4-(((1-((2-(hydroxymethyl)-5-(5-methyl-2,4-dioxo-1,2,3,4-tetrahydropyrimidin-1-yl)oxolan-3-yl)-1H-1,2,3-triazol-4-yl)methyl)carbamoyl)-2,2-diethyl-1,2-dihydro-[1,2,4]triazolo[4,3-a]quinolin-2-ium bromide] | capable of entering the cytoplasm of the cells; however, they did not penetrate the nuclei |  | 
452 | 0.68 | 459 | 0.60 | CC[N+]1(CC)CN2C(=N1)C(C(=O)NCCCCCN=[N+]=[N-])=Cc1ccccc12.[Br-] [Compound 8, 4-((5-Azidopentyl)carbamoyl)-2,2-diethyl-1,2-dihydro-[1,2,4]triazolo[4,3-a]quinolin-2-ium bromide] |  |  | 
455 | 0.71 | 462 | 0.62 | C#CCNC(=O)C1=Cc2ccccc2N2C[N+](CC)(CC)N=C12.[Br-] [Compound 3, 2,2-Diethyl-4-(prop-2-yn-1-ylcarbamoyl)-1,2-dihydro-[1,2,4]triazolo[4,3-a]quinolin-2-ium bromide] |  |  | 
